In patent US20080255111A1, “Tissue Factor Production Inhibitor” (SANKYO COMPANY LIMITED, priority 2004, published 2008):

Test system: tissue factor mRNA in LPS-stimulated mouse peritoneal macrophages
Assay: Assay of mouse peritoneal macrophage tissue factor mRNA
Format: cell-based
Settings: 18 h, then LPS 100 ng/ml for 6 h, relative to cyclophilin mRNA, DMSO treatment = 100, read-out: Expressed Amount of Tissue Factor mRNA; for mrna remaining at 1 µM: test compound 1 μM; for mrna remaining at 10 µM: test compound 10 μM
Method: 3 ml of thioglycolate (Sigma Chemical) were administered into the abdominal cavity of male C57BL/6J mice (Charles River) followed 4 days later by intraperitoneal administration of 10 ml of phosphate-buffered saline (hereinafter PBS) containing heparin (Hishiyama Pharmaceutical) at a concentration of 5 U/ml and recovery of intraperitoneal macrophages using a syringe. After centrifuging the recovered macrophages at 1000 rpm and 4° C. for 5 minutes, the supernatant was discarded followed by suspending in RPMI 1640 medium (Gibco Laboratories) containing normal fetal bovine serum (hereinafter FBS) at a concentration of 10%. The macrophages were adjusted to a concentration of 4×10^6 cells/ml, disseminated in 1 ml aliquots in a 12-well plate, and cultured for 3 hours at 37° C. using a CO2 incubator. Subsequently, the cells were washed with PBS, and the medium was replaced with RPMI medium containing lipoprotein-deficient serum (hereinafter LPDS) (Sigma Chemical) at a concentration of 5%. Test compounds dissolved in dimethylsulfoxide (DMSO) at a concentration of 1 μM were added to make a final DMSO concentration of 0.1%, and after warming for 18 hours at 37° C., lipopolysaccharide (hereinafter LPS) (Sigma Chemical) was added to make a concentration of 100 ng/ml. The cells were recovered 6 hours later, RNA was extracted using the Rneasy Mini Kit (Qiagen), and after carrying out a reverse transcription reaction using the First-Strand cDNA Synthesis Kit (Amersham Biosciences), the expressed amounts of tissue factor mRNA and cyclophylin mRNA were measured by quantitative RT-PCR (TaqMan, Applied Biosystems 7700 Sequence Detector).
Quantitative RT-PCR for tissue factor was carried out using the aforementioned TF-1 and TF-2 as primers and TF-P as probes, while quantitative PCR for cyclophilin was carried out using the aforementioned Cyl-1 and Cyl-2 as primers and Cyl-P as probes. Both were carried out by warming for 2 minutes at 50° C. and then for 10 minutes at 95° C., followed by 40 warming cycles consisting of warming for 15 seconds at 95° C. and then for 1 minute at 60° C. The expressed amount of tissue factor mRNA was calculated as a relative value of the expressed amount of cyclophilin mRNA. The expressed amounts of tissue factor mRNA resulting from the test compounds at a concentration of 1 μM or 10 μM based on a value of 100 for the expressed amount of tissue factor mRNA in a case of treatment with DMSO at a concentration of […] are shown in Table 7.

CN(c1ccc(OCc2ccc(C(F)(F)F)c(O)c2C(=O)OC(C)(C)C)cc1)S(C)(=O)=O [Reference Example 6, tert-Butyl 2-hydroxy-6-({4-[methyl(methylsulfonyl)amino]phenoxy}methyl)-3-(trifluoromethyl)benzoate]
mrna remaining at 1 µM: 62.8%

CCc1ccc(COc2ccc(N(C)C(C)=O)cc2)c(C(=O)OC(C)(C)C)c1O [Reference Example 7, tert-Butyl 6-({4-[acetyl(methyl)amino]phenoxy}methyl)-3-ethyl-2-hydroxybenzoate]
mrna remaining at 1 µM: 68%

CN(C(=O)CC1CC1)c1ccc(OCc2ccc(C(F)(F)F)c(O)c2C(=O)OC(C)(C)C)cc1 [Reference Example 8, tert-Butyl 6-({4-[(cyclopropylacetyl) (methyl)amino]phenoxy}methyl)-2-hydroxy-3-(trifluoromethyl)benzoate]
mrna remaining at 1 µM: 51.8%

CC(C)(C)OC(=O)n1c(COc2ccc(-c3ccc(CC(=O)O)cc3)cc2)cc2ccc(F)cc21 [Reference Example 9, (4′-{[1-(tert-Butoxycarbonyl)-6-fluoro-1H-indol-2-yl]methoxy}-1,1′-biphenyl-4-yl)acetic acid]
mrna remaining at 1 µM: 66%

CC(C)(C)OC(=O)n1c(COc2ccc(-c3ccc(CC(=O)O)c(Cl)c3)cc2)cc2ccc(F)cc21 [Reference Example 10, (4′-([1-(tert-Butoxycarbonyl)-6-fluoro-1H-indol-2-yl]methoxy)-3-chloro-1,1′-biphenyl-4-yl)acetic acid]
mrna remaining at 1 µM: 68.9%

CC(C)(C)OC(=O)n1c(COc2ccc(-c3ccc(CC(=O)O)s3)cc2)cc2ccc(F)cc21 [Reference Example 11, [5-(4-{[1-(tert-Butoxycarbonyl)-6-fluoro-1H-indol-2-yl]methoxy}phenyl)-2-thienyl]acetic acid]
mrna remaining at 1 µM: 61.1%

CC(C)(C)OC(=O)n1c(COc2ccc(-c3ccc(CC(=O)O)cc3Cl)cc2)cc2ccc(F)cc21 [Reference Example 12, (4′-{[1-(tert-Butoxycarbonyl)-6-fluoro-1H-indol-2-yl]methoxy}-2-chloro-1,1′-biphenyl-4-yl)acetic acid]
mrna remaining at 1 µM: 54.3%

CC(C)(C)OC(=O)c1c(COc2ccc(-c3ccc(CC(=O)O)cc3)cc2)ccc(C(F)(F)F)c1O [Reference Example 13, (4′-{[2-(tert-Butoxycarbonyl)-3-hydroxy-4-(trifluoromethyl)benzyl]oxy}-1,1′-biphenyl-4-yl)acetic acid]
mrna remaining at 1 µM: 65.4%

CC(C)(C)OC(=O)c1c(COc2ccc(-c3ccc(CC(=O)O)c(Cl)c3)cc2)ccc(C(F)(F)F)c1O [Reference Example 14, (4′-{[2-(tert-Butoxycarbonyl)-3-hydroxy-4-(trifluoromethyl)benzyl]oxy}-3-chloro-1,1′-biphenyl-4-yl)acetic acid]
mrna remaining at 1 µM: 61.2%

CCc1cc(CC(=O)O)ccc1-c1ccc(OCc2ccc(C(F)(F)F)c(O)c2C(=O)OC(C)(C)C)cc1 [Reference Example 15, (4′-{[2-(tert-Butoxycarbonyl)-3-hydroxy-4-(trifluoromethyl)benzyl]oxy}-2-ethyl-1,1′-biphenyl-4-yl)acetic acid]
mrna remaining at 1 µM: 55.5%

Cc1c(CC(=O)O)cccc1-c1ccc(OCc2ccc(C(F)(F)F)c(O)c2C(=O)OC(C)(C)C)cc1 [Reference Example 16, (4′-{[2-(tert-Butoxycarbonyl)-3-hydroxy-4-(trifluoromethyl)benzyl]oxy}-2-methyl-1,1′-biphenyl-3-yl)acetic acid]
mrna remaining at 1 µM: 65.4%

CC(C)c1ccc(COc2ccc(-c3ccc(CC(=O)O)cc3)cc2)c(C(=O)OC(C)(C)C)c1O [Reference Example 18, (4′-{[2-(tert-Butoxycarbonyl)-3-hydroxy-4-isopropylbenzyl]oxy}-1,1′-biphenyl-4-yl)acetic acid]
mrna remaining at 1 µM: 56.9%

CC(C)(C)OC(=O)c1c(COc2ccc(-c3ccc(CC(=O)O)cc3)cc2)ccc(F)c1O [Reference Example 19, (4′-{[2-(tert-Butoxycarbonyl)-4-fluoro-3-hydroxybenzyl]oxy}-1,1′-biphenyl-4-yl)acetic acid]
mrna remaining at 10 µM: 51.6%

CC(C)(C)OC(=O)c1c(COc2ccc(-c3ccc(CC(=O)O)cc3)cc2)ccc(Cl)c1O [Reference Example 20, (4′-{[2-(tert-Butoxycarbonyl)-4-chloro-3-hydroxybenzyl]oxy}-1,1′-biphenyl-4-yl)acetic acid]
mrna remaining at 10 µM: 58.1%

CC(C)(C)OC(=O)c1c(COc2ccc(-c3ccc(CC(=O)O)s3)cc2)ccc(C(F)(F)F)c1O [Reference Example 21, [5-(4-{[2-(tert-Butoxycarbonyl)-3-hydroxy-4-(trifluoromethyl)benzyl]oxy}phenyl)-2-thienyl]acetic acid]
mrna remaining at 1 µM: 68.9%

CC(C)(C)OC(=O)c1c(COc2ccc(-c3ccc(CC(=O)O)cc3[N+](=O)[O-])cc2)ccc(C(F)(F)F)c1O [Reference Example 22, (4′-{[2-(tert-Butoxycarbonyl)-3-hydroxy-4-(trifluoromethyl)benzyl]oxy}-2-nitro-1,1′-biphenyl-4-yl)acetic acid]
mrna remaining at 1 µM: 54%

CC(C)(C)OC(=O)c1c(COc2ccc(-c3ccc(CC(=O)O)c(F)c3)cc2)ccc(C(F)(F)F)c1O [Reference Example 23, (4′-{[2-(tert-Butoxycarbonyl)-3-hydroxy-4-(trifluoromethyl)benzyl]oxy}-3-fluoro-1,1′-biphenyl-4-yl)acetic acid]
mrna remaining at 1 µM: 51.6%

Cc1cc(CC(=O)O)ccc1-c1ccc(OCc2ccc(C(F)(F)F)c(O)c2C(=O)OC(C)(C)C)cc1 [Reference Example 24, (4′-{[2-(tert-Butoxycarbonyl)-3-hydroxy-4-(trifluoromethyl)benzyl]oxy}-2-methyl-1,1′-biphenyl-4-yl)acetic acid]
mrna remaining at 1 µM: 61.8%

COc1cc(CC(=O)O)ccc1-c1ccc(OCc2ccc(C(F)(F)F)c(O)c2C(=O)OC(C)(C)C)cc1 [Reference Example 25, (4′-{[2-(tert-Butoxycarbonyl)-3-hydroxy-4-(trifluoromethyl)benzyl]oxy}-2-methoxy-1,1′-biphenyl-4-yl)acetic acid]
mrna remaining at 1 µM: 64%

CC(C)(C)OC(=O)c1c(COc2ccc(-c3ccc(CC(=O)O)cc3Cl)cc2)ccc(C(F)(F)F)c1O [Reference Example 26, (4′-{[2-(tert-Butoxycarbonyl)-3-hydroxy-4-(trifluoromethyl)benzyl]oxy}-2-chloro-1,1′-biphenyl-4-yl)acetic acid]
mrna remaining at 1 µM: 42.3%

CC(C)(C)OC(=O)c1c(COc2ccc(-c3ccc(CC(=O)O)cc3C(F)(F)F)cc2)ccc(C(F)(F)F)c1O [Reference Example 27, (4′-{[2-(tert-Butoxycarbonyl)-3-hydroxy-4-(trifluoromethyl)benzyl]oxy}-2-trifluoromethyl-1,1′-biphenyl-4-yl)acetic acid]
mrna remaining at 1 µM: 63.5%

CC(C)(C)OC(=O)c1c(COc2ccc(-c3ccc(C4(C(=O)O)CC4)cc3)cc2)ccc(C(F)(F)F)c1O [Reference Example 28, 1-(4′-{[2-(tert-Butoxycarbonyl)-3-hydroxy-4-(trifluoromethyl)benzyl]oxy}-1,1′-biphenyl-4-yl)cyclopropanecarboxylic acid]
mrna remaining at 10 µM: 41.7%

CC(C)(C)OC(=O)c1c(COc2ccc(-c3cccc(S(C)(=O)=O)c3)cc2)ccc(C(F)(F)F)c1O [Reference Example 29, tert-Butyl 2-hydroxy-6-({[3′-(methylsulfonyl)-1,1′-biphenyl-4-yl]oxy}methyl)-3-(trifluoromethyl)benzoate]
mrna remaining at 10 µM: 88.4%

CC(C)(C)OC(=O)c1c(COc2ccc(-c3ccc(CC(=O)O)cc3N)cc2)ccc(C(F)(F)F)c1O [Reference Example 30, (2-Amino-4′-{[2-(tert-butoxycarbonyl)-3-hydroxy-4-(trifluoromethyl)benzyl]oxy}-1,1′-biphenyl-4-yl)acetic acid]
mrna remaining at 1 µM: 65.6%

CN(C)c1cc(CC(=O)O)ccc1-c1ccc(OCc2ccc(C(F)(F)F)c(O)c2C(=O)OC(C)(C)C)cc1 [Reference Example 31, [4′-{[2-(tert-Butoxycarbonyl)-3-hydroxy-4-(trifluoromethyl)benzyl]oxy}-2-(dimethylamino)-1,1′-biphenyl-4-yl]acetic acid]
mrna remaining at 10 µM: 33.7%
